Results on one compound are retold here after US20240391954A1, “MC4R AGONIST PEPTIDES” (The Regents of the University of Michigan, priority 2021, published 2024).

In one data set the target is T1, human MC3R (Homo sapiens, UniProt P41968).
T1 construct: expressed in transfected cells; host or cells: HEK-293 cells stably expressing the GScAMP22F split-luciferase cAMP sensor (parent reporter line from Promega); MC3R clone generated in-house, G418 selection
As to the kind of experiment: split-luciferase cAMP sensor assay, agonist mode (measurement window 1), hMC3R. The data set is classed as cell-based. The procedure, abridged:
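EC50 values come from a four-parameter variable-slope fit of luminescence in measurement window 1, capturing direct peptide effects on receptor-expressing cells with a cAMP22f luciferase sensor. Cells were preloaded with 4% D-luciferin, serum-free medium; 20 μM forskolin normalized for cell number and transducer efficiency.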

Data set [1] can be described thus: Plasma protein binding (Centrifree ultrafiltration). The data set is classed as in vitro ADME. The procedure, abridged: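 Compound added to plasma from 1 mM, 100 µM and 10 µM DMSO stocks (1:100), incubated 5 min at 25 °C, then ultrafiltered at 2000× g for 20 min. Plasma and ultrafiltrate quantified by LC-MS/MS; % free = filtrate/plasma ×100, % bound = 100 − % free.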

The target of the next data set is T2, human MC1R (Homo sapiens, UniProt Q01726).
T2 construct: expressed in transfected cells; host or cells: HEK-293 cells stably expressing hMC1R and the GScAMP22F cAMP sensor
T2 sequence (Q01726 whole entry): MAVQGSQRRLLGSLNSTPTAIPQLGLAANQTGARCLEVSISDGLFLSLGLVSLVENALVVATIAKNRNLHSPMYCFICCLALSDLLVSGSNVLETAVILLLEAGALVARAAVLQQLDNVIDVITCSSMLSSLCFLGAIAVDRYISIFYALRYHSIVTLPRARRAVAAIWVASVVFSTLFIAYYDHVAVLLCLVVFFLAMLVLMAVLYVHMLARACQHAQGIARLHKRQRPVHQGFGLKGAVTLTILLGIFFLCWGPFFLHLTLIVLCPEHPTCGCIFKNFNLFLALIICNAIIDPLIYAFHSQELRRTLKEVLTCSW
As to the kind of experiment: split-luciferase cAMP sensor assay, agonist mode, hMC1R. It counts as cell-based. As to conditions: MC4R versus MC1R. The essentials: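 HEK-293 cells stably expressing hMC1R and the GScAMP22F split-luciferase cAMP sensor, preloaded 120 min at 37° C with D-luciferin in serum-free medium. Peptide responses were taken as peak luminescence over 2-13 min minus 2-min baseline, normalized to the α-MSH ECmax. EC50 was obtained from a four-parameter variable-slope fit.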

Positions of bridges follow the written chain, without caps; N, C: chain ends. Non-standard residues stand in square brackets, D forms with d. Residues, ends and D or L forms follow the SMILES beside them. Nle = CCCC[C@H](N)C(=O)O

T1 sequence (P41968 whole entry): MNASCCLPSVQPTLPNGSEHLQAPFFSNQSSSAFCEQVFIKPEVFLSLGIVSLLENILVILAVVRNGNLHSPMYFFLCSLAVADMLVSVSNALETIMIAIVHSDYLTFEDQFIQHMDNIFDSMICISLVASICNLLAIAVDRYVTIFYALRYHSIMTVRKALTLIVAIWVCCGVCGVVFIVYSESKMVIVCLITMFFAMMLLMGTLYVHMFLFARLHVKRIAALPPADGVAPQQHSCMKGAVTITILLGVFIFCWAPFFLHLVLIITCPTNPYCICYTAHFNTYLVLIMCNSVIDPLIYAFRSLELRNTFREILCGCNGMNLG

Usually EC50 stands for the concentration that produces a half-maximal response. What is called fraction unbound is the share of the substance not bound to proteins or other matrix. Take `CCCC[C@H](NC(=O)[C@H](CCCNC(=N)N)NC(C)=O)C(=O)N[C@H]1CSSC[C@@H](C(N)=O)NC(=O)[C@H](Cc2c[nH]c3ccccc23)NC(=O)[C@H](CCCNC(=N)N)NC(=O)[C@@H](Cc2ccccc2)NC(=O)[C@H](Cc2c[nH]cn2)NC1=O` [CTX-1227, Arg-Nle-cyclo(Cys-His-D-Phe-Arg-Trp-Cys)] (Ac-R[Nle]CH[dF]RWC-NH2; disulfide 3-8 (inferred)): the Emax on human MC3R (% maximal activation, agonist mode, read-out: MC3R cAMP % max activation) turned out to be 96%. Besides, at human MC3R (HEK-293 cells stably expressing hMC3R, agonist mode, read-out: MC3R cAMP EC50), the concentration for a half-maximal effect (EC50) was 2.8 nM. Also, the “MC4R selectivity vs MC3R” value on human MC3R (MC4R versus MC3R) is given as 11. In addition, in data set [1] (0.1 uM), the fraction unbound at 5 min, 0.1 µM was found to be 0.5. The fraction unbound at 5 min, 1 µM in data set [1] (1.0 uM) is 0.53. In data set [1] (10.0 uM), this compound had a free fraction (fraction unbound) at 5 min, 10 µM of 0.46. At human MC1R, the “MC4R selectivity vs MC1R” value came out at 0.92.
